Here are results for 18 compounds from patent US4303657A, “Nitrohydroxyalkyl-substituted quinoxaxiline dioxides and alkanoic acid esters thereof” (International Minerals & Chemical Corp., priority 1979, dated 1981).

Assay [1] in a line: Growth rate and feed efficiency of animals when included in the feed rations (statement). It counts as in vivo. As to conditions: in words. The source says:
It is an embodiment of this invention to provide a method for promoting the growth of animals and improving their feed efficiency by administering to them a compound of this invention.
The method of administration of a compound of this invention is to incorporate it in the feed rations intended for the animal at a concentration of about 50-150 g/ton of feed, preferably about 100 g/ton. The animals are permitted to feed at liberty throughout the growth period. There are many specialized feed rations for different species of animals. The compounds of this invention can be used with any of the known rations.

Assay [2] in a line: Growth promotion and improved feed efficiency feeding test (rye diet). Particulars: for Increase in feed efficiency / Increase in weight: over control group. It counts as in vivo, male two-day-old broiler-type chicks. How it is done:
Growth promotion and improved feed efficiency were determined as follows:
Two groups of male two-day-old broiler-type chicks were placed into Petersime starter batteries and given feed and water ad libitum for the duration of each test. Each group was subdivided into six sub-groups with ten birds in each sub-group, thus providing sixty birds per group. One group received the basal feed ration, as given in Table 1 and served as a control. The other group receives the same ration, but in addition there was included P-2229 at a concentration of 100 g/ton. The basal ration was a rye diet which alters the microflora of the gut in the bird which results in a growth depressant effect. When a growth stimulant or promotant is added to the diet, the effect on the birds performance will be more apparent than if a corn base diet was used.
The test period was thirteen days. Individual live body weights and pen feed efficiencies were taken at 2 and 14 days of age.

Assay [3] concerns Streptococcus hemolyticus. Kind of assay: Minimum inhibitory concentration, Streptococcus hemolyticus. The class given is cell-based. Particulars: Streptococcus pyogenes.
The test system of another assay is Mycobacterium ranae. Kind of assay: Minimum inhibitory concentration, Mycobacterium ranae. The class given is cell-based.
For the next assay, the system named is Aspergillus fumigatus. Kind of assay: Minimum inhibitory concentration, Aspergillus fumigatus. It counts as cell-based.
Assay [4] concerns Pasteurella pseudotuberculosis. As to the kind of experiment: microbe, parasite or virus in culture. The class given is cell-based. As to conditions: Yersinia pseudotuberculosis.
Another assay concerns Candida albicans. Kind of assay: Minimum inhibitory concentration, Candida albicans. The class given is cell-based.
The next assay deals with Pseudomonas aeruginosa. Kind of assay: Minimum inhibitory concentration, Pseudomonas aeruginosa. The class given is cell-based.
In the next assay the test system is Aspergillus niger. Kind of assay: Minimum inhibitory concentration, Aspergillus niger. It counts as cell-based.
A further assay deals with Pencillium sp. As to the kind of experiment: Minimum inhibitory concentration, Pencillium sp. The class given is cell-based.
Another assay has as its system Escherichia coli. Kind of assay: Minimum inhibitory concentration, Escherichia coli. The class given is cell-based.
A further assay has as its system Shigella dysenteriae. As to the kind of experiment: Minimum inhibitory concentration, Shigella dysenteriae. It counts as cell-based.
The next assay deals with Staphylococcus aureus. Kind of assay: Minimum inhibitory concentration, Staphylococcus aureus. It counts as cell-based.
The mark [5] stands for this setting: Table 1, 100 g/ton in feed, 13 days.
The mark [6] stands for this setting: Table 2, feed consumed to weight gained, control 1.56.
Setting [7] is: Table 2, test of Example 1 repeated, control 208.77.
Where [8] appears, read: Table 3, feed consumed to weight gained, control 1.82.
The mark [9] stands for this setting: when tested in feed rations, in words.

Values after ≈ are worked out from the molar mass of the structure shown.

Take `CCC(COC(C)=O)(C(OC(C)=O)c1c[n+]([O-])c2ccccc2[n+]1[O-])[N+](=O)[O-]` (stereo not drawn) [Example 12, 2-(1-acetoxy-2-acetoxymethyl-2-nitrobutyl)quinoxaline-1,4-dioxide]: in assay [1] (present-tense example), the feed efficiency entry was “increases the feed efficiency” and the growth rate result was “improves the growth rate”.

Regarding `CCCC(C(O)c1c[n+]([O-])c2ccccc2[n+]1[O-])[N+](=O)[O-]` (stereo not drawn) [Example 13, 2-(1-hydroxy-2-nitropentyl)quinoxaline-1,4-dioxide], in assay [1] (present-tense example), the feed efficiency entry was “increases the feed efficiency” and the growth rate entry is reported as “improves the growth rate”.

For the compound `CCC(C)(C(O)c1c[n+]([O-])c2ccccc2[n+]1[O-])[N+](=O)[O-]` (stereo not drawn) [Example 14, 2-(1-hydroxy-2-methyl-2-nitrobutyl)quinoxaline-1,4-dioxide], in [1] (present-tense example), the feed efficiency entry is recorded as “increases the feed efficiency” and the growth rate result is “improves the growth rate”.

`O=[N+]([O-])C1(C(O)c2c[n+]([O-])c3ccccc3[n+]2[O-])CCCCC1` (stereo not drawn) [Example 15, α-(1-nitrocyclohexyl)-2-quinoxalinemethanol-1,4-dioxide]: in [1] (present-tense example), the feed efficiency entry is “increases the feed efficiency” and the growth rate entry was “improves the growth rate”.

As to `CCCC(C(OC(C)=O)c1c[n+]([O-])c2ccccc2[n+]1[O-])[N+](=O)[O-]` (stereo not drawn) [Example 16, 2-(1-acetoxy-2-nitropentyl)quinoxaline-1,4-dioxide], in assay [1] (present-tense example), the feed efficiency result is recorded as “increases the feed efficiency” and the growth rate entry is given as “improves the growth rate”.

For `CCC(C)(C(OC(C)=O)c1c[n+]([O-])c2ccccc2[n+]1[O-])[N+](=O)[O-]` (stereo not drawn) [Example 17, 2-(1-acetoxy-2-methyl-2-nitrobutyl)quinoxaline-1,4-dioxide], in [1] (present-tense example), the feed efficiency entry is on record as “increases the feed efficiency” and the growth rate result is on record as “improves the growth rate”.

With `CC(=O)OC(c1c[n+]([O-])c2ccccc2[n+]1[O-])C1([N+](=O)[O-])CCCCC1` (stereo not drawn) [Example 18], in assay [1] (present-tense example), the feed efficiency entry is “increases the feed efficiency” and the growth rate entry is listed as “improves the growth rate”.

Take `COC(=O)C(C(O)c1c[n+]([O-])c2ccccc2[n+]1[O-])[N+](=O)[O-]` (stereo not drawn) [Example P-2229, methyl-α-nitro-β-hydroxy-2-quinoxalinepropionate-1,4-dioxide]: the “Body weight gain, av” value in assay [2] (Table 1, 100 g/ton in feed, 13 days, control 208.73) is 218.75 g. The compound further came in with a feed efficiency in assay [2] (Table 1, feed consumed to weight gained, control 1.49) of 1.48. In assay [2] (setting [5]), the “Increase in feed efficiency” value came to 0.7% and the Increase in weight was 4.8%.

As for `CC(C(O)c1c[n+]([O-])c2ccccc2[n+]1[O-])[N+](=O)[O-]` (stereo not drawn) [Example P-2230, 2-(1-hydroxy-2-nitropropyl)quinoxaline-1,4-dioxide], the feed efficiency in [2] (setting [6]) came out at 1.45. For the same compound, in assay [2] (Table 2), the “Increase in feed efficiency” value was determined as 7.1 and the Increase in weight is on record as 6.5%. Further, the “Body weight gain, av” value in [2] (setting [7]) was determined as 222.37 g.

Consider `O=[N+]([O-])CC(O)c1c[n+]([O-])c2ccccc2[n+]1[O-]` (stereo not drawn) [Example P-2231, 2-(1-hydroxy-2-nitroethyl)-quinoxaline-1,4-dioxide], for which, in assay [2] (setting [6]), the feed efficiency is 1.46. Besides, in assay [2] (Table 2), the “Increase in feed efficiency” value is listed as 6.4 and the Increase in weight was determined as 6.1%. Moreover, the “Body weight gain, av” value in assay [2] (setting [7]) is recorded as 221.54 g.

As to `COC(=O)C(C(OC(C)=O)c1c[n+]([O-])c2ccccc2[n+]1[O-])[N+](=O)[O-]` (stereo not drawn) [Example P-2236], the “Body weight gain, av” value in assay [2] (Table 4, control 97.33) worked out at 154.92 g. Moreover, the feed efficiency in assay [2] (Table 4, feed consumed to weight gained, control 1.84) was 1.56. For the same compound, in assay [2] (Table 4), the “Increase in feed efficiency” value came to 15.2 and the Increase in weight is listed as 59.17%.

Regarding `CC(=O)OC(c1c[n+]([O-])c2ccccc2[n+]1[O-])C(C)[N+](=O)[O-]` (stereo not drawn) [Example P-2242, 2-(1-acetoxy-2-nitropropyl)quinoxaline-1,4-dioxide], the “Body weight gain, av” value in assay [2] (Table 5, control 165.7) is 210.6 g. The compound further registered a feed efficiency in assay [2] (Table 5, feed consumed to weight gained, control 1.57) of 1.48. In addition, in assay [2] (Table 5), the “Increase in feed efficiency” value amounted to 5.7 and the Increase in weight was 27.1%.

With `CC(=O)OC(C[N+](=O)[O-])c1c[n+]([O-])c2ccccc2[n+]1[O-]` (stereo not drawn) [Example P-2243, 2-(1-acetoxy-2-nitroethyl)quinoxaline-1,4-dioxide], in assay [2] (Table 6, control 144.7), the “Body weight gain, av” value turned out to be 240.5 g. Besides, in assay [2] (Table 6, feed consumed to weight gained, control 1.69), the feed efficiency came out at 1.48. In addition, in assay [2] (Table 6), the “Increase in feed efficiency” value came to 12.4 and the Increase in weight is reported as 66.2%.

For the compound `CCC(C(O)c1c[n+]([O-])c2ccccc2[n+]1[O-])[N+](=O)[O-]` (stereo not drawn) [Example P-2246, 2-(1-hydroxy-2-nitrobutyl)quinoxaline-1,4-dioxide], in assay [2] (Table 3, control 128.6), the “Body weight gain, av” value is given as 194.7 g. This compound came in with a feed efficiency in assay [2] (setting [8]) of 1.54. In assay [2] (Table 3), the “Increase in feed efficiency” value came out at 15.4 and the Increase in weight turned out to be 51.4%.

On to `CC(C)(C(O)c1c[n+]([O-])c2ccccc2[n+]1[O-])[N+](=O)[O-]` (stereo not drawn) [Example P-2265, 2-(1-hydroxy-2-methyl-2-nitropropyl)quinoxaline-1,4-dioxide], for which the “Body weight gain, av” value in assay [2] (Table 3, control 128.6) came out at 188.7 g. In assay [2] (setting [8]), this compound yielded a feed efficiency of 1.59. In addition, in assay [2] (Table 3), the “Increase in feed efficiency” value came to 12.6 and the Increase in weight is on record as 46.7%.

Consider `CCC(C(OC(C)=O)c1c[n+]([O-])c2ccccc2[n+]1[O-])[N+](=O)[O-]` (stereo not drawn) [Example P-2277, 2-(1-acetoxy-2-nitrobutyl)quinoxaline-1,4-dioxide], for which, in assay [1], the feed efficiency result was “increases the feed efficiency” and the growth rate result is listed as “improves the growth rate”.

Turning to `CCC(CO)(C(O)c1c[n+]([O-])c2ccccc2[n+]1[O-])[N+](=O)[O-]` (stereo not drawn) [Example P-2280, 2-(1-hydroxy-2-hydroxymethyl-2-nitrobutyl)quinoxaline-1,4-dioxide], the MIC was 500 to 1000 µg/mL (≈ 1620 to 3230 µM) in assay [3]; 50 to 100 µg/mL (≈ 162 to 323 µM) with Mycobacterium ranae; 500 to 1000 µg/mL (≈ 1620 to 3230 µM) in the assay on Aspergillus fumigatus; 50 to 100 µg/mL (≈ 162 to 323 µM) in assay [4]; 100 to 500 µg/mL (≈ 323 to 1620 µM) in the assay with Candida albicans; 500 to 1000 µg/mL (≈ 1620 to 3230 µM) with Pseudomonas aeruginosa. Also, the MIC with Aspergillus niger fell in the range of 100 to 500 µg/mL (≈ 323 to 1620 µM); in the assay on Pencillium sp., 100 to 500 µg/mL (≈ 323 to 1620 µM); with Escherichia coli, 100 to 500 µg/mL (≈ 323 to 1620 µM); in the assay with Shigella dysenteriae, 500 to 1000 µg/mL (≈ 1620 to 3230 µM); against Staphylococcus aureus it was 500 to 1000 µg/mL (≈ 1620 to 3230 µM). Also, the feed efficiency result in [2] (setting [9]) is recorded as “improved efficiency”. Besides, the growth rate entry in [2] (setting [9]) is “improved growth rate”.

Turning to `CC(=O)OC(c1c[n+]([O-])c2ccccc2[n+]1[O-])C(C)(C)[N+](=O)[O-]` (stereo not drawn) [Example P-2284, 2-(1-acetoxy-2-methyl-2-nitropropyl)quinoxaline-1,4-dioxide], in [1], the feed efficiency result was “increases the feed efficiency” and the growth rate result is listed as “improves the growth rate”.
